Laboratory results published in PMC9953043, “Licochalcone E, a β-Amyloid Aggregation Inhibitor, Regulates Microglial M1/M2 Polarization via Inhibition of CTL1-Mediated Choline Uptake” (Biomolecules, 2023).

Target: T1, amyloid-β 1-42 (Aβ1-42) (Homo sapiens, UniProt P05067)
T1 construct: gene APP; Aβ1-42 peptide
Assay: Thioflavin T aggregation assay with purified Aβ[…]-42 peptide
Assay type: biochemical

T1 sequence (P05067 672-713): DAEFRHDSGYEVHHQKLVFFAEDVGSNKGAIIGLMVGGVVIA

IC50 | SMILES
104 µM | C=C(C)[C@H](C)c1cc(/C=C/C(=O)c2ccc(O)cc2)c(OC)cc1O [Lico E, Licochalcone E]
30.4 µM | COc1c(/C=C/C(=O)c2ccc(O)c(CC=C(C)C)c2)ccc(O)c1O [Lico D, Licochalcone D]
